According to patent publication US20090030086A1, “ANTIMICROBIAL AGENTS” (priority 2005, published 2009):
Values after ≈ are worked out from the molar mass of the structure shown.

Tested on: S. pyogenes ATCC 12344
Assay: MIC assay
Format: cell-based
Conditions: Streptococcus pyogenes, ATCC12344
Text: 3. Streptococcus pyogenes ATCC 12344—this is a Gram-positive […] bacterium; it is a member of the group A β-haemolytic streptococci which are occasional upper respiratory tract commensals in humans (10% of children, commensal carriage uncommon in adults, its main occurrence is as the agent of tonsillitis). It is clinically significant in the context of skin infections, being a causative agent of cellulitis, necrotising fasciitis, impetigo, erysipelas, wound infections and scarlet fever. Penicillin and erythromycin are the standard treatments for infections involving S. pyogenes. […] S. pyogenes is also a major cause of upper respiratory tract infections. […]
This is a standard international method for quantitatively assessing the antimicrobial activity of a compound in a liquid medium. […]
The wells were inoculated with a liquid suspension of freshly grown micro-organism and incubated under the conditions described above. […] The MIC value was recorded as the lowest concentration of test compound required to inhibit microbial growth, i.e., the lowest concentration for which the liquid in the well remained clear. […]

SMILES: CC(C)(C)c1cc(O)ccc1O [TBHQ, 2-t-butyl hydroquinone]
- MIC: 62.5 to 125 µg/mL (≈ 376 to 752 µM)
